According to patent US20080319065A1, “Systemic and Intrathecal Effects of a Novel Series of Phospholipase A2 Inhibitors on Hyperalgesia and Spinal Pge2 Release” (The Regents of the University of California, priority 2005, published 2008):

What was measured:
GVIA PLA2 = target: T1, GVIA PLA2 (Homo sapiens, UniProt O60733); experiment: Time dependence and reversibility of GVIA PLA2 inhibition; assay type: biochemical
T1 sequence (O60733 1-806): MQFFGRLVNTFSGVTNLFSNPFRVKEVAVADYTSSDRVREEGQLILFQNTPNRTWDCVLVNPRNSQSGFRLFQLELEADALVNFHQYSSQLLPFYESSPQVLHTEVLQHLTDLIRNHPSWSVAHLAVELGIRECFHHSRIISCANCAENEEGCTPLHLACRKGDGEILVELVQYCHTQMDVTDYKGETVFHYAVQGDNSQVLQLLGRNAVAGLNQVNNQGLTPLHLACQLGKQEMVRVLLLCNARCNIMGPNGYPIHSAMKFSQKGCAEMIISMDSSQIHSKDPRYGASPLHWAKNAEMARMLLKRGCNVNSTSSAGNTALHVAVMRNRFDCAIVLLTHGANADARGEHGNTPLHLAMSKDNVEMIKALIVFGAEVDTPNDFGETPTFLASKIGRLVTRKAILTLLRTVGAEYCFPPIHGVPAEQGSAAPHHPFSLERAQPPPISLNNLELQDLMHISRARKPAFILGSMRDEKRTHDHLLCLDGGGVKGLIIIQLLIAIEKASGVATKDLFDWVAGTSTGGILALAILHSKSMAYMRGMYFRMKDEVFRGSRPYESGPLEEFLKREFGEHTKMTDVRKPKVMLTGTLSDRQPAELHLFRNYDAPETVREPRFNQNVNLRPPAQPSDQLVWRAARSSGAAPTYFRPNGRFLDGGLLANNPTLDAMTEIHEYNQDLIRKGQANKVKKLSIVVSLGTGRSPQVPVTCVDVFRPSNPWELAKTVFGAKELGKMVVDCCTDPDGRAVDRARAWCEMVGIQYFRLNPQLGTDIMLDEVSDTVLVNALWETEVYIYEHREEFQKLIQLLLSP
Description: GVIA PLA2 (25 ng) was preincubated with either AX010 or AX0073 (5 μM) for 0, 5, 15 or 30 minutes and then assayed in the standard GVIA PLA2 assay mix containing 5 μM inhibitor. The final concentration of the inhibitors in the assay mix was 0.01 mole fraction, and the samples were incubated for 30 minutes at 40° C. […] In the latter respect, 25 ng of GVIA PLA2 was pre-incubated with 10 μM AX010 or AX073 for 10 minutes before diluting the enzyme 1:50 into the standard GVIA PLA2 assay mix lacking inhibitor, and incubating for 30 minutes at 40° C. The final inhibitor concentration in these assays was 0.0004 mole fraction, well below surface concentrations that either AX010 or AX073 inhibit the enzyme.

[1] = test system: intrathecal SP evoked thermal hyperalgesia; experiment: Intrathecal substance P-induced thermal hyperalgesia; assay type: in vivo, rat; settings: 3 mg/kg IP, 30 min before IT SP
From the text: Male Holtzman Sprague-Dawley rats (300-350 g; Harlan Industries) were individually housed and maintained on a 12-hr light/dark cycle with free access to food and water. For spinal drug injections, lumbar catheters were implanted in rats under isoflurane anesthesia according to a modification of the procedure described by Yaksh (Yaksh and Rudy, supra, 1976). A polyethylene catheter (PE-5; Spectranetics, 0.014 in OD) was inserted into the intrathecal space and advanced to the rostral edge of the lumbar enlargement through an incision in the atlanto-occipital membrane. Five days after implantation rats were entered into the study. […] A timer was actuated with the light source, and latency was defined as the time required for the paw to show a brisk withdrawal as detected by photodiode motion sensors that stop the timer and terminate the stimulus. Paw withdrawal latencies (PWL) were assessed prior to any treatment (control) and at intervals after treatment. Left (injured) and right (uninjured) paw withdrawal latencies were assessed and plotted versus time. In addition, difference latency scores (uninjured-injured) were calculated and the average withdrawal latency over the post-injection observation intervals are calculated for comparison between treatment groups. […] The mean PWL of the left and right paws was assessed at each time point. […]

Structure (SMILES)	reversibility of GVIA PLA2 inhibition (GVIA PLA2; pre-incubated with 10 μM for 10 minutes, diluted 1:50, final 0.0004 mole fraction)	time-dependent inhibition of GVIA PLA2 (GVIA PLA2; preincubated 0, 5, 15 or 30 minutes, 5 μM inhibitor, 0.01 mole fraction)	prevention of intrathecal SP-evoked thermal hyperalgesia [1]	melting point [°C]
CCC(=O)C(=O)NCCCC(=O)OC [AX010]	freely reversible inhibitors	no increased potency with prolonged incubation		
CCCCCCCCCCCCCCC(=O)C(=O)NCCCC(=O)OCC [AX048, Ethyl 4-[(2-oxohexadecanoyl)amino]butanoate]			completely prevented the spinally-evoked thermal hyperalgesia	63 to 64
